PubChem BioAssay AID330 (DTP/NCI, 2004)
Where “and” joins values, the source holds several entries; their conditions need not be identical. Equal values may be shown once. Inconclusive results and toxic doses are left out.

System: P388 leukemia ip, CD2F1 mice, survival T/C
Test: NCI In Vivo Anticancer Drug Screen. Data for tumor model P388 Leukemia (intraperitoneal) in CD2F1 (CDF1) mice
Conditions: endpoint: median survival time, higher = longer survival
Summary of the method: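 Mice carrying the transplanted tumor received test compound or vehicle. Survival was recorded in each group, and the value is the treated-group measurement divided by that of the vehicle-treated control group.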

[1] = dose: 50.0 mg/kg/injection, schedule: Q01DX005 (ip), vehicle: saline with Tween-80
[2] = dose: 100.0 mg/kg/injection, schedule: Q01DX005 (ip), vehicle: saline with Tween-80
[3] = dose: 200.0 mg/kg/injection, schedule: Q01DX005 (ip), vehicle: saline with Tween-80
[4] = dose: 15.0 mg/kg/injection, schedule: Q01DX005 (ip), vehicle: Klucel (hydroxypropylcellulose) (HPC)
[5] = dose: 30.0 mg/kg/injection, schedule: Q01DX005 (ip), vehicle: Klucel (hydroxypropylcellulose) (HPC)
[6] = dose: 60.0 mg/kg/injection, schedule: Q01DX005 (ip), vehicle: Klucel (hydroxypropylcellulose) (HPC)
[7] = dose: 60.0 mg/kg/injection, schedule: Q01DX005 (ip), vehicle: saline with Tween-80
[8] = dose: 120.0 mg/kg/injection, schedule: Q01DX005 (ip), vehicle: saline with Tween-80
[9] = dose: 240.0 mg/kg/injection, schedule: Q01DX005 (ip), vehicle: saline with Tween-80
[10] = dose: 100.0 mg/kg/injection, schedule: Q01DX009 (ip), vehicle: Klucel (hydroxypropylcellulose) (HPC)
[11] = dose: 60.0 mg/kg/injection, schedule: Q01DX005 (ip), vehicle: saline
[12] = dose: 120.0 mg/kg/injection, schedule: Q01DX005 (ip), vehicle: saline
[13] = dose: 240.0 mg/kg/injection, schedule: Q01DX005 (ip), vehicle: saline
[14] = dose: 50.0 mg/kg/injection, schedule: Q04DX003 (ip), vehicle: saline with Tween-80
[15] = dose: 100.0 mg/kg/injection, schedule: Q04DX003 (ip), vehicle: saline with Tween-80
[16] = dose: 25.0 mg/kg/injection, schedule: Q01DX009 (ip), vehicle: Klucel (hydroxypropylcellulose) (HPC)
[17] = dose: 50.0 mg/kg/injection, schedule: Q01DX009 (ip), vehicle: Klucel (hydroxypropylcellulose) (HPC)
[18] = dose: 50.0 mg/kg/injection, schedule: Q01DX005 (ip), vehicle: Klucel (hydroxypropylcellulose) (HPC)
[19] = dose: 100.0 mg/kg/injection, schedule: Q01DX005 (ip), vehicle: Klucel (hydroxypropylcellulose) (HPC)
[20] = dose: 200.0 mg/kg/injection, schedule: Q01DX005 (ip), vehicle: Klucel (hydroxypropylcellulose) (HPC)
[21] = dose: 100.0 mg/kg/injection, schedule: Q01DX001 (ip), vehicle: saline with Tween-80
[22] = dose: 200.0 mg/kg/injection, schedule: Q01DX001 (ip), vehicle: saline with Tween-80
[23] = dose: 400.0 mg/kg/injection, schedule: Q01DX001 (ip), vehicle: saline with Tween-80

With COc1cc2c(cc1C(C)(C)c1ccccc1)OCO2 the T/C [1] was 99 % of control, the T/C [2] was 100 % of control and the T/C [3] was 101 % of control.
For CC(=O)OC1CC2C(C)(C)OC(=O)C=CC2(C)C2CCC3(C)C(c4ccoc4)C(=O)C4OC43C12C (stereo not given), the T/C (dose: 7.5 mg/kg/injection, schedule: Q01DX005 (ip), vehicle: Klucel (hydroxypropylcellulose) (HPC)) was 88 % of control, the T/C [4] was 93 % of control and the T/C [5] was 95 % of control. The T/C [6] was 93 % of control.
O=C1CCC(c2n[nH]c(=S)n2-c2ccccc2)N1Cc1ccccc1 (stereo not given) was tested, and the T/C [7] was 101 % of control, the T/C [8] was 94 % of control and the T/C [9] was 90 % of control.
In the case of CCCCCCC(=O)/C=C/c1cc(Cl)cc(Cl)c1OCOC, the T/C [10] is reported as 116 % of control and the T/C (dose: 200.0 mg/kg/injection, schedule: Q01DX009 (ip), vehicle: Klucel (hydroxypropylcellulose) (HPC)) is reported as 100 % of control.
For O=[N+]([O-])c1ccc(/C(=C/c2ccc(F)cc2)S(=O)(=O)c2ccccc2)o1, the T/C (dose: 50.0 mg/kg/injection, schedule: Q01DX009 (ip), vehicle: suspension in saline) was 97 % of control and the T/C (dose: 100.0 mg/kg/injection, schedule: Q01DX009 (ip), vehicle: suspension in saline) was 88 % of control.
COc1cc(OC)c2cc(C(=O)c3ccc(C#N)cc3)c(=O)oc2c1 was tested, and the T/C [7] was 94 % of control, the T/C [8] was 104 % of control and the T/C [9] was 105 % of control.
Clc1cccc2c(SCCCCCCCSc3c4ccccc4nc4c(Cl)cccc34)c3ccccc3nc12 was tested, and the T/C [6] was 93 % of control, the T/C (dose: 120.0 mg/kg/injection, schedule: Q01DX005 (ip), vehicle: Klucel (hydroxypropylcellulose) (HPC)) was 91 % of control and the T/C (dose: 240.0 mg/kg/injection, schedule: Q01DX005 (ip), vehicle: Klucel (hydroxypropylcellulose) (HPC)) was 90 % of control.
For CCCc1onc(-c2noc(CCC)c2CC)c1CC, the T/C [11] was 100 % of control, the T/C [12] was 95 % of control and the T/C [13] was 103 % of control.
In the case of COc1cc2c(cc1OC)NC(=O)C2, the T/C [14] is reported as 97 % of control and the T/C [15] is reported as 98 % of control.
With NCCc1c[nH]c2ccc(O)cc12 (tested in a mixture with another compound) the T/C (dose: 50.0 mg/kg/injection, schedule: Q01DX009 (ip), vehicle: other) was 113 % of control, the T/C [11] was 102 % of control and the T/C (dose: 100.0 mg/kg/injection, schedule: Q01DX009 (ip), vehicle: other) was 109 % of control. For the same molecule, the T/C [12] was 100 % of control, the T/C (dose: 200.0 mg/kg/injection, schedule: Q01DX009 (ip), vehicle: other) was 91 % of control and the T/C [13] was 99 % of control.
COC(=O)c1nc(N)nc(C(=O)OC)c1C(=O)c1cc(Cl)ccc1Cl was tested, and the T/C [7] was 100 % of control and the T/C [8] was 100 % of control.
CC1(C)OCC(C2OC(C)(C)OC2C2COC(C)(C)O2)O1 (stereo not given) was tested, and the T/C (dose: 12.5 mg/kg/injection, schedule: Q01DX009 (ip), vehicle: Klucel (hydroxypropylcellulose) (HPC)) was 105 % of control, the T/C [16] was 106 % of control and the T/C [17] was 108 % of control. The T/C [10] was 100 % of control.
In the case of CN1CCc2cc3c(cc2[C@H]1[C@@H]1OC(=O)c2c1ccc1c2OCO1)OCO3, the T/C (dose: 6.25 mg/kg/injection, schedule: Q01DX005 (ip), vehicle: saline with Tween-80) is reported as 101 % of control and the T/C (dose: 12.5 mg/kg/injection, schedule: Q01DX005 (ip), vehicle: saline with Tween-80) is reported as 97 % of control.
With COc1ccc2c(c1)CCCC(Br)C2=O (stereo not given) the T/C (dose: 25.0 mg/kg/injection, schedule: Q01DX009 (ip), vehicle: distilled water + alcohol) was 107 % of control, the T/C (dose: 50.0 mg/kg/injection, schedule: Q01DX009 (ip), vehicle: distilled water + alcohol) was 105 % of control and the T/C (dose: 100.0 mg/kg/injection, schedule: Q01DX009 (ip), vehicle: distilled water + alcohol) was 120 % of control. The T/C (dose: 200.0 mg/kg/injection, schedule: Q01DX009 (ip), vehicle: distilled water + alcohol) was 122 % of control.
In the case of O=C(NC(Cc1ccccc1)C(=O)O)C(Cl)Cl (stereo not given), the T/C [18] is reported as 91 % of control, the T/C [19] is reported as 100 % of control and the T/C [20] is reported as 100 % of control.
With Cn1c2ccccc2c2nnc(N/N=C/c3ccc([N+](=O)[O-])o3)nc21 the T/C [21] was 90 % of control, the T/C [22] was 91 % of control and the T/C [23] was 96 % of control.
OC(c1ccco1)c1nc2ccccc2s1 (stereo not given) was tested, and the T/C [4] was 106 % of control, the T/C [5] was 100 % of control and the T/C [6] was 105 % of control and 92 % of control.
COc1ccc(-n2c(C)csc2=S)cc1 was tested, and the T/C [14] was 100 % of control, the T/C [15] was 100 % of control and the T/C (dose: 200.0 mg/kg/injection, schedule: Q04DX003 (ip), vehicle: saline with Tween-80) was 95 % of control.
For CC/C(=C/C(F)(F)C(F)(F)C(F)(F)F)[N+](=O)[O-], the T/C [16] was 96 % of control, the T/C [17] was 104 % of control and the T/C [10] was 102 % of control.
With O=S(=O)(c1ccccc1)N1CN2CCN(C2)C1 the T/C (dose: 50.0 mg/kg/injection, schedule: Q01DX009 (ip), vehicle: saline with Tween-80) was 123 % of control and the T/C (dose: 200.0 mg/kg/injection, schedule: Q01DX009 (ip), vehicle: saline with Tween-80) was 150 % of control.
For ClC1=CC(=N/Br)/C=CC/1=N/Br, the T/C [1] was 99 % of control and 101 % of control and 107 % of control, the T/C [2] was 100 % of control and 103 % of control and 97 % of control and the T/C [3] was 106 % of control and 108 % of control and 120 % of control.
CC(=O)N1N=C(c2ccc(OCC(O)CN3CCN(CC(O)COc4ccc(C5=NN(C(C)=O)C(c6ccccc6)C5)cc4)CC3)cc2)CC1c1ccccc1 (stereo not given) was tested, and the T/C [1] was 100 % of control and the T/C [2] was 86 % of control.
In the case of CCCN(CCC)C(=O)C(c1ccccc1)C(O)(c1ccccc1)c1ccccc1 (stereo not given), the T/C [18] is reported as 100 % of control, the T/C [19] is reported as 95 % of control and the T/C [20] is reported as 92 % of control.
With Cc1ccc(S(=O)(=O)N/N=C/c2c(Cl)n(-c3ccccc3)c3ccccc23)cc1 the T/C [21] was 100 % of control, the T/C [22] was 99 % of control and the T/C [23] was 97 % of control.
CN1CCN(C(=O)Nc2ccc(N=Nc3ccccc3)cc2)CC1 was tested, and the T/C (dose: 12.5 mg/kg/injection, schedule: Q01DX009 (ip), vehicle: saline sonified) was 105 % of control and the T/C (dose: 25.0 mg/kg/injection, schedule: Q01DX009 (ip), vehicle: saline sonified) was 100 % of control.
For O=[N+]([O-])c1ccc(Sc2c3ccccc3nc3ccccc23)cn1, the T/C (dose: 25.0 mg/kg/injection, schedule: Q01DX005 (ip), vehicle: saline with Tween-80) was 104 % of control, the T/C [1] was 109 % of control and the T/C [2] was 104 % of control. For the same molecule, the T/C [3] was 101 % of control.
With COc1ccc(OC)c(NC(=O)OCc2ccc3c(c2)OCO3)c1 the T/C [7] was 98 % of control, the T/C [8] was 95 % of control and the T/C [9] was 93 % of control.
With N#CCC(=O)CCCCCCCO the T/C (dose: 100.0 mg/kg/injection, schedule: Q01DX001 (ip), vehicle: saline) was 93 % of control and the T/C (dose: 400.0 mg/kg/injection, schedule: Q01DX001 (ip), vehicle: saline) was 92 % of control.
O=c1[nH]c2cc(Cl)ccc2nc1/C=C(\O)c1ccccc1O was tested, and the T/C [7] was 86 % of control and 95 % of control, the T/C [8] was 92 % of control and the T/C [9] was 89 % of control and 96 % of control.
For CCCC(C)(C(=O)Nc1ccc2nc(C)cc(N)c2c1)C(=O)Nc1ccc2nc(C)cc(N)c2c1, the T/C [1] was 94 % of control and the T/C [2] was 96 % of control.
In the case of CC(O)CN=Cc1ccccc1[O-].CC(O)CN=Cc1ccccc1[O-].[Cu+2] (stereo not given), the T/C (dose: 15.0 mg/kg/injection, schedule: Q01DX005 (ip), vehicle: saline with Tween-80) is reported as 95 % of control, the T/C (dose: 30.0 mg/kg/injection, schedule: Q01DX005 (ip), vehicle: saline with Tween-80) is reported as 94 % of control and the T/C [7] is reported as 101 % of control and 89 % of control.
